This is an account of results in US20100048564A1, “FUSED BICYCLIC HETEROARYL DERIVATIVE” (DAIICHI SANKYO COMPANY, LIMITED, priority 2007, published 2010).

Tested on in the first data set: not given
Assay: not given
Conditions: not given
With `COC(=O)c1cccc(OCc2nc3ccc(Oc4cccnc4)cc3n2C)c1.Cl.Cl`, the melting point (as a rule, the temperature, or range, at which the solid turns liquid) is 195 to 208 °C.

`Cl.Cn1c(COc2cccc(C(=O)O)c2)nc2ccc(Oc3cccc(Cl)c3)cc21` [Example 31, 3-[6-(3-Chlorophenoxy)-1-methyl-1H-benzimidazol-2-ylmethoxy]benzoic acid hydrochloride] had a melting point of 218 to 222 °C.

`Cn1c(COc2cccc(C(=O)O)c2)nc2ccc(Oc3cccc(OC(F)(F)F)c3)cc21` [Example 33, 3-({1-Methyl-6-[3-(trifluoromethoxy)phenoxy]-1H-benzimidazol-2-yl}methoxy]benzoic acid] returned a melting point of 221 to 227 °C. Same read-out and setting: the same measure for `Cn1c(COc2cccc(C(=O)O)c2)nc2ccc(Oc3cc(F)cc(Cl)c3)cc21` [Example 38, 3-{[6-(3-Chloro-5-fluorophenoxy)-1-methyl-1H-benzimidazol-2-yl]methoxy}benzoic acid]: 209 to 213 °C; for `Cc1cc(F)cc(Oc2ccc3nc(COc4cccc(C(=O)O)c4)n(C)c3c2)c1` [Example 40, 3-{[6-(3-Fluoro-5-methylphenoxy)-1-methyl-1H-benzimidazol-2-yl]methoxy}benzoic acid]: 224 to 226 °C; for `CCc1cccc(Oc2ccc3nc(COc4cccc(C(=O)O)c4)n(C)c3c2)c1` [Example 42, 3-{[6-(3-Ethylphenoxy)-1-methyl-1H-benzimidazol-2-yl]methoxy}benzoic acid]: 204 to 208 °C.

Another data set relates to KK mice. The data set can be described thus: Hypoglycemic effect in diabetic KK mice (Test Example 1). The format is in vivo. As to conditions: Mus musculus, po, 72 h; male KK mice, diet admixture containing 0.03% of the compound, 3 days, plasma glucose vs control group; read-out: Hypoglycemic rate (%). An excerpt:
Six-week-old male KK mice were purchased from CLEA Japan, Inc. and then were fed until 15 to 20 weeks old to develop diabetes. The mice were individually fed during the adaptation period and the test period, and water and feed (FR2, Funabashi Farm) were freely ingested.
At the start of the experiment, after body weight measurement, blood was collected from the tail vein of the mice into a heparin-coated glass tube and centrifuged, and then plasma was separated. The glucose level in the plasma was measured by Glucoloader GXT (A&T Corp.), and individuals having a plasma glucose level of about 350 mg/dl or more were selected. The mice were grouped, each group having 3 to 4 mice, to make the average body weight and the average plasma glucose level similar. Each compound was administered to a compound group with a diet admixture containing 0.03% of the compound. A separate group in which the mice were fed only with diet was a control group.
The experiment period (drug administration period) was three days. The grouping day was the 0th day. On the 3rd day, the body weight was measured and blood was collected from the tail vein to measure the plasma glucose level.
The hypoglycemic rate was determined by the following formula.
Hypoglycemic rate=[(Control group blood glucose level−Compound-administered group blood glucose level)/Control group blood glucose level]×100
With `Cn1c(COc2cccc(C(=O)O)c2)nc2ccc(Oc3ccccc3F)cc21` [Example 28, 3-{[6-(2-Fluorophenoxy)-1-methyl-1H-benzimidazol-2-yl]methoxy}benzoic acid], the inhibition in vivo at 0.03 % in diet was 61%. Regarding `COc1cccc(Oc2ccc3nc(COc4cccc(C(=O)O)c4)n(C)c3c2)c1` [Example 29, 3-{[6-(3-Methoxyphenoxy)-1-methyl-1H-benzimidazol-2-yl]methoxy}benzoic acid], the inhibition in vivo at 0.03 % in diet came to 60%. On to `Cl.Cn1c(COc2cccc(C(=O)O)c2)nc2ccc(Oc3cccc(Cl)c3)cc21` [Example 31, 3-[6-(3-Chlorophenoxy)-1-methyl-1H-benzimidazol-2-ylmethoxy]benzoic acid hydrochloride], for which the inhibition in vivo at 0.03 % in diet was 47%. As to `Cn1c(COc2cccc(C(=O)O)c2)nc2ccc(Oc3cccc(OC(F)(F)F)c3)cc21` [Example 33, 3-({1-Methyl-6-[3-(trifluoromethoxy)phenoxy]-1H-benzimidazol-2-yl}methoxy]benzoic acid], the inhibition in vivo at 0.03 % in diet came to 42%. The same measure, in the same setting: the same measure for `Cn1c(COc2cccc(C(=O)O)c2)nc2ccc(Oc3cc(F)ccc3F)cc21` [Example 41, 3-{[6-(2,5-Difluorophenoxy)-1-methyl-1H-benzimidazol-2-yl]methoxy}benzoic acid]: 51%; for `CCc1cccc(Oc2ccc3nc(COc4cccc(C(=O)O)c4)n(C)c3c2)c1` [Example 42, 3-{[6-(3-Ethylphenoxy)-1-methyl-1H-benzimidazol-2-yl]methoxy}benzoic acid]: 29%; for `Cc1ccc(Oc2ccc3nc(COc4cccc(C(=O)O)c4)n(C)c3c2)cc1` [Example 49, 3-{[1-Methyl-6-(4-methylphenoxy)-1H-benzimidazol-2-yl]methoxy}benzoic acid]: 48%. For `COc1cc(Oc2ccc3nc(COc4cccc(C(=O)O)c4)n(C)c3c2)ccc1C` [Example 54, 3-{[6-(3-Methoxy-4-methylphenoxy)-1-methyl-1H-benzimidazol-2-yl]methoxy}benzoic acid], the inhibition in vivo at 0.03 % in diet amounted to 32%.

Take `Cc1ccc(Oc2ccc3nc(COc4cccc(C(=O)O)c4)n(C)c3c2)cc1C` [Example 55, 3-{[6-(3,4-Dimethylphenoxy)-1-methyl-1H-benzimidazol-2-yl]methoxy}benzoic acid]: the inhibition in vivo at 0.03 % in diet stood at 44%. On the same count and under the same terms, in the case of `Cn1c(COc2cc(F)cc(C(=O)O)c2)nc2ccc(Oc3ccc(Cl)c(F)c3)cc21` [Example 59, 3-{[6-(4-Chloro-3-fluorophenoxy)-1-methyl-1H-benzimidazol-2-yl]methoxy}-5-fluorobenzoic acid] it was 47%.

On to `CCC(CC)Oc1ccc2nc(COc3cccc(C(=O)O)c3)n(C)c2c1` [Example 67, 3-{[6-(1-Ethylpropoxy)-1-methyl-1H-benzimidazol-2-yl]methoxy}benzoic acid], for which the inhibition in vivo at 0.03 % in diet stood at 50%. Same read-out and setting: in the case of `Cc1ccc(Oc2ccc3nc(COc4cccc(C(=O)O)c4)n(C)c3n2)cc1` [Example 69, 3-{[3-Methyl-5-(4-methylphenoxy)-3H-imidazo[4,5-b]pyridin-2-yl]methoxy}benzoic acid] it was 43%. Still for that read-out and setting: the same measure for `Cc1ccc(Oc2ccc3nc(COc4cccc(C(=O)O)c4)n(C)c3n2)cc1C` [Example 70, 3-{[5-(3,4-Dimethylphenoxy)-3-methyl-3H-imidazo[4,5-b]pyridin-2-yl]methoxy}benzoic acid]: 38%.

For `Cc1ccc(Oc2ccc3nc(COc4cc(F)cc(C(=O)O)c4)n(C)c3n2)cc1` [Example 72, 3-Fluoro-5-{[3-methyl-5-(4-methylphenoxy)-3H-imidazo[4,5-b]pyridin-2-yl]methoxy}benzoic acid], the inhibition in vivo at 0.03 % in diet is 42%.
